How the values were obtained:
mouse FPR2 = target: T1, mouse FPR2 (Mus musculus, UniProt O88536); assay: Calcium flux in FPR2-transfected HEK 293 cells; assay type: cell-based; conditions: 250 ng/ml pertussis toxin for 4 h
T1 construct: expressed in transfected cells; host or cells: HEK 293
T1 sequence (O88536 1-351): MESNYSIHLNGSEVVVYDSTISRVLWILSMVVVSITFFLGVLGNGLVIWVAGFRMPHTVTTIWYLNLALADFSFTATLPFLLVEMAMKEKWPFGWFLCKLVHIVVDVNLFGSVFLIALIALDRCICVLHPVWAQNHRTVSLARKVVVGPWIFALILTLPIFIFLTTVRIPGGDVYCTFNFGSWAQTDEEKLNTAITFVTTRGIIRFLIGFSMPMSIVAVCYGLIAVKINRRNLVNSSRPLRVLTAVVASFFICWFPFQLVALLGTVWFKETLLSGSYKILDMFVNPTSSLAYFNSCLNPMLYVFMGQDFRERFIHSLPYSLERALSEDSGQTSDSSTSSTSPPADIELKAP
Text: Cell Lines. Construction of human embryonic kidney (HEK) 293 cell lines expressing human formylpeptide receptor (FPR), human formylpeptide receptor-like 1 receptor (FPRL1R), mouse FPR, mouse FPR2, mouse lipoxin A4 receptor (encoded by Fpr-rs1), a mouse orphan receptor encoded by Fpr-rs3, and human CCR5 and CX3CR1 has been previously described (Hartt J. K. et al. 1999 J Exp Med 190:741-747; Combadiere C. et al. 1996 J Leukocyte Biol 60:147-152; Combadiere C. et al. 1998 J Biol Chem 273:23799-23804; Gao J.-L. et al. 1998 Genomics 51:270-276). Fpr-rs1 and Fpr-rs3 were tested because of their high structural similarity to the known formylpeptide receptors and because they are also expressed in phagocytes (Gao J.-L. et al. 1998 Genomics 51:270-276). […]
Calcium Flux Analysis. […] Data were recorded every 200 ms as the relative ratio of fluorescence emitted at 510 nm following sequential excitation at 340 and 380 nm. The following ligands were evaluated: Aβ (nonfibrillated, human residues 1-42; California Peptide Research; Napa, Calif.), fMet-Leu-Phe (fMLF; Sigma), ATP (Life Technologies), and the chemokines RANTES (regulated upon activation normal T-cell expressed and secreted), SDF-1 (stromal cell-derived factor-1), 1-309, fractalkine, MIP-1α (macrophage inflammatory protein-1α), and KC (Peprotech, Rocky Hill, N.J.). […]

human monocytes = assay: Chemotaxis (migration) of human monocytes, 48-well chamber; assay type: cell-based; conditions: PT 100 ng/ml, 37° C., 30 min
Text: Reagents and cells. Aβ peptide (Aβ42) and the peptide with reversed sequence (Aβ42-1) were purchased from California Peptide Research (Napa, Calif.). All peptides were examined for endotoxin contamination and were negative at highest concentrations used in the study. Human peripheral blood monocytes were isolated from buffy coats (National Institutes of Health Clinical Center, Bethesda, Md.) enriched for mononuclear cells by using iso-osmotic Percoll gradient. The purity of the cell preparations was examined by morphology and was >90%. Rat basophilic leukemia cell line (RBL-2H3) transfected with epitope-tagged N-formylpeptide receptor (FPR) (designated ETFR) was a kind gift of Dr. R. Snyderman (Duke University, Durham, N.C.). cDNA cloning and establishment of FPRL1-transfected human embryonic kidney (HEK) 293 cells (FPRL1/293) were described previously (Gao J. L. & Murphy P. M. 1993 J Biol Chem 268:[…]). All the transfected cells were maintained in culture media as described (Su S. B. et al. 1999 J Exp Med 189:395-402).
Chemotaxis assays and measurement of calcium mobilization. Chemotaxis assays were performed using 48-well chemotaxis chambers (Deng X. et al. 1999 Blood 94:1165-1673). The results were expressed as the mean number (±SD) of migrated cells in three high-powered fields in three replicate samples. Chemotaxis index, which represented the fold increase in the number of cells migrated in response to chemoattractants over the cell response to control medium, also was used. Ca^+ mobilization was measured by stimulating fura-2 AM-loaded human monocytes or receptor-transfected cells with various agents (Deng X. et al. 1999 Blood 94:1165-1673; Su S. B. et al. 1999 J Exp Med 189:395-402) and recording the ratio of fluorescence at 340 and 380 nm in a luminescence spectrometer with FL WinLab program (Perkin-Elmer, Beaconsfield, UK).

Substance: pertussis toxin
- effect of pretreatment on Aβ calcium flux signaling (mouse FPR2): completely blocked
- effect of preincubation on monocyte migration in response to Aβ42 (human monocytes): completely abolished
